Results from patent publication US7803774B2, “Modulators of β-amyloid peptide aggregation” (Praecis Pharmaceuticals, Inc., priority 1999, dated 2010).
Counter-ions that a name gives are not always drawn.

What was measured:
Aβ1-40 [1] = biological target: T1, Aβ1-40 (Homo sapiens, UniProt P05067); experiment: Nucleation assay (turbidity, change in lag time of Aβ aggregation); format: biochemical; conditions: for Nucleation assay data: footnote *: measured at 0.6 μM of compound, Table II
T1 construct: first Aβ1-40 peptide is dissolved in HFIP
T1 sequence (P05067 672-711): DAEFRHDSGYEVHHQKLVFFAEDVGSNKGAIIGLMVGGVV

Aβ1-40 [2] = biological target: T1, Aβ1-40; experiment: as above; format: biochemical; conditions: for Nucleation assay Δ lag 1.25 μM: 1.25 μM test compound; for Nucleation assay Δ lag 1.25 μM / Nucleation assay Δ lag 5 μM / Nucleation assay Δ lag […] / Nucleation assay data 3 μM: 5 μM Aβ1-40; for Nucleation assay Δ lag 1.25 μM / Nucleation assay Δ lag […]: ratio to control lag time; for Nucleation assay Δ lag 5 μM: 5 μM test compound, ratio of lag time with compound to lag time of control; for Nucleation assay Δ lag […]: […] test compound; for Nucleation assay data: footnote *: measured at 1.25 μM of compound; for Nucleation assay data / Nucleation assay data 0.3 μM / Nucleation assay data 1 μM / Nucleation assay data 3 μM: Table II; for Nucleation assay data 0.3 μM: 0.3 μM test compound; for Nucleation assay data 0.3 μM / Nucleation assay data 1 μM / Nucleation assay data 3 μM: ΔLag ratio to control; for Nucleation assay data 1 μM: 1 μM test compound; for Nucleation assay data 3 μM: 3 μM test compound
Text: The nucleation assay is employed to determine the ability of test compounds to alter (e.g. inhibit) the early events in formation of β-AP fibers from monomeric β-AP. Characteristic of a nucleated polymerization mechanism, a lag time is observed prior to nucleation, after which the peptide rapidly forms fibers as reflected in a linear rise in turbidity. The time delay before polymerization of β-AP monomer can be quantified as well as the extent of formation of insoluble fiber by light scattering (turbidity). Polymerization reaches equilibrium when the maximum turbidity reaches a plateau. The turbidity of a solution of natural β-AP in the absence or presence of various concentrations of a β-amyloid modulator compound is determined by measuring the apparent absorbance of the solution at 405 nm (A405nm) over time. The threshold of sensitivity for the measurement of turbidity is in the range of 15-20 μM β-AP. […] This assay can be performed using stirring or shaking to accelerate polymerization, thereby increasing the speed of the assay. Moreover the assay can be adapted to a 96-well plate format to screen multiple compounds.
To perform the nucleation assay, first Aβ1-40 peptide is dissolved in HFIP (1,1,1,3,3,3-Hexafluoro-2-propanol; Aldrich 10,522-8) at a concentration of 2 mg peptide/ml and incubated at room temperature for 30 min. HFIP-solubilized peptide is sonicated in a waterbath sonicator for 5 min at highest setting, then evaporated to dryness under a stream of argon. The peptide film is resuspended in anhydrous dimethylsulfoxide (DMSO) at a concentration of 6.9 mg/ml (25× concentration), sonicated for 5 min as before, then filtered through a 0.2 micron nylon syringe filter (VWR cat. No. 28196-050). Test compounds are dissolved in DMSO at a 100× concentration. Four volumes of 25×Aβ1-40 peptide in DMSO are combined with one volume of test compound in DMSO in a glass vial, and mixed to produce a 1:1 molar ratio of AP peptide to test compound. For different molar ratios, test compounds are diluted with DMSO prior to addition to Aβ1-40, in order to keep the final DMSO and Aβ1-40 concentrations constant. […] Ten microliters of the mixture is then added to the bottom of a well of a Corning Costar ultra low binding 96-well plate (Coming Costar, Cambridge Mass.; cat. No. 2500). Ninety microliters of water is added to the well, the plate is shaken on a rotary shaken at a constant speed at room temperature for 30 seconds, an additional 100 μl of 2×PTL buffer (20 mM NaH2PO4, 300 mM NaCl, pH 7.4) is added to the well, the plate is reshaken for 30 seconds and a baseline (t=0) turbidity reading is taken by measuring the apparent absorbance at 405 nm using a Bio-Rad Model 450 Microplate Reader. The plate is then returned to the shaker and shaken continuously for 5 hours. Turbidity readings are taken at 15 minute intervals.
β-amyloid aggregation in the absence of any modulators results in enhanced turbidity of the natural β-AP solution (i.e., an increase in the apparent absorbance at 405 nm over time).
The modulator compounds were evaluated in nucleation assays utilizing 5 μM Aβ1-40 and either 5 μM, 2.5 μM, 1.25 μM, 3 μM, 1 μM, or 0.3 μM test compound. The change in lag time (ΔLag) is presented as the ratio of the lag time observed in the of the test compound (at either 5 μM, 2.5 μM, 1.25 μM, 3 μM, 1 μM, or 0.3 μM) to the lag time of the control.

[3] = BUI#77: IN VIVO: IV BRAIN LEVELS @ 1 HOUR post 1 mL x 1 min IV
Description: Table printed on a drawing sheet, Fig. 1
Title: BUI#77: IN VIVO: IV BRAIN LEVELS @ 1 HOUR post 1 mL x 1 min IV
The patent's description of the figure: FIG. 1 is a table depicting the results from a brain uptake assay.
First reader's note: Rows with only a Structure cell (l-v-f-f-a, TFA. l-v-f-f-l, TFA. l-f-f-v-l) are bold group headings for the rows below them; the asterisk printed in the gap before the UNIT DOSE block is kept in its own unheaded column.

TFA.H-(Glvffl)-NH2 [PPI-1013]
Nucleation assay Δ lag (Aβ1-40 [1]; footnote #: measured at 0.6 μM of compound, Table I): 2
Nucleation assay Δ lag (Aβ1-40 [2]; footnote #: measured at 1.25 μM of compound, Table I): >3

TFA.N,N-dimethyl-(affvl)-NH2 [PPI-913]
Nucleation assay Δ lag 1.25 μM (Aβ1-40 [2]): 1
Nucleation assay Δ lag 5 μM (Aβ1-40 [2]): 1
Nucleation assay Δ lag […] (Aβ1-40 [2]): 1

2TFA.H-lvf-NH-NH-fvl-H [PPI-1125]
Nucleation assay data (Aβ1-40 [1]): 2.0
Nucleation assay data (Aβ1-40 [2]): >2.5

CC(C)C[C@@H](N)C(=O)N[C@H](Cc1ccccc1)C(=O)N[C@H](Cc1ccccc1)C(=O)N[C@@H](C(=O)N[C@H](CC(C)C)C(N)=O)C(C)C [578 | 578, TFA. H-(lffvl)-NH2]
MAX SOLUBILITY | Brain Levels (nM) + CsA | mean [3]: 57 nM
MAX SOLUBILITY | Brain Levels (nM) | mean [3]: 7.6 nM
UNIT DOSE (2mg/kg IV) | (+)CsA [3]: 16 nM
UNIT DOSE (2mg/kg IV) | ALONE [3]: 2 nM

TFA.N-ethyl-(Gaffvl)-NH2 [PPI-969]
Nucleation assay Δ lag 1.25 μM (Aβ1-40 [2]): 3
Nucleation assay Δ lag 5 μM (Aβ1-40 [2]): >5
Nucleation assay Δ lag […] (Aβ1-40 [2]): >5

CN[C@H](CC(C)C)C(=O)N[C@@H](C(=O)N[C@H](Cc1ccccc1)C(=O)N[C@H](Cc1ccccc1)C(=O)N[C@H](C)C(N)=O)C(C)C [1019 | 1019, TFA. N-methyl-(lvffa)-NH2]
MAX SOLUBILITY | Brain Levels (nM) + CsA | mean [3]: 29 nM
MAX SOLUBILITY | Brain Levels (nM) | mean [3]: 7.2 nM
UNIT DOSE (2mg/kg IV) | (+)CsA [3]: 17 nM
UNIT DOSE (2mg/kg IV) | ALONE [3]: 4 nM

TFA.N,N-dimethyl-(Gaffv1)-NH2 [PPI-803]
Nucleation assay Δ lag 1.25 μM (Aβ1-40 [2]): <1
Nucleation assay Δ lag 5 μM (Aβ1-40 [2]): <1
Nucleation assay Δ lag […] (Aβ1-40 [2]): <1

CC(C)C[C@@H](N)C(=O)N[C@@H](C(=O)N[C@H](Cc1ccccc1)C(=O)N[C@H](Cc1ccccc1)C(=O)N[C@H](C)C(N)=O)C(C)C [655 | 655, TFA. H-(lvffa)-NH2]
MAX SOLUBILITY | Brain Levels (nM) + CsA | mean [3]: 50 nM
MAX SOLUBILITY | Brain Levels (nM) | mean [3]: 7.9 nM
UNIT DOSE (2mg/kg IV) | (+)CsA [3]: 22 nM
UNIT DOSE (2mg/kg IV) | ALONE [3]: 3 nM

TFA.H-(lvffa)-dimethylamide [PPI-993]
Nucleation assay Δ lag 1.25 μM (Aβ1-40 [2]): 1
Nucleation assay Δ lag 5 μM (Aβ1-40 [2]): 1
Nucleation assay Δ lag […] (Aβ1-40 [2]): 1

TFA.H-(lvffa)-isopropylamide [PPI-992]
Nucleation assay Δ lag 1.25 μM (Aβ1-40 [2]): 1
Nucleation assay Δ lag 5 μM (Aβ1-40 [2]): 3
Nucleation assay Δ lag […] (Aβ1-40 [2]): 1

TFA.H-(lf-D-Cha-vl)-NH2 [PPI-1318]
Nucleation assay data 0.3 μM (Aβ1-40 [2]): 1
Nucleation assay data 1 μM (Aβ1-40 [2]): 2
Nucleation assay data 3 μM (Aβ1-40 [2]): >5

TFA.N-methyl-(lvffl)-NH2 [PPI-1019]
Nucleation assay data (Aβ1-40 [1]): 2.0
Nucleation assay data (Aβ1-40 [2]): >2.5

2TFA.H-(lfkvl)-NH2 [PPI-1321]
Nucleation assay data 0.3 μM (Aβ1-40 [2]): <1
Nucleation assay data 1 μM (Aβ1-40 [2]): <1
Nucleation assay data 3 μM (Aβ1-40 [2]): <1

TFA.N,N-diethyl-(Gaffvl)-NH2 [PPI-1005]
Nucleation assay Δ lag 1.25 μM (Aβ1-40 [2]): 1
Nucleation assay Δ lag 5 μM (Aβ1-40 [2]): 3
Nucleation assay Δ lag […] (Aβ1-40 [2]): 3

TFA.H-(lf-[F5]f-vl)-NH2 [PPI-1320]
Nucleation assay data 0.3 μM (Aβ1-40 [2]): 1
Nucleation assay data 1 μM (Aβ1-40 [2]): 3
Nucleation assay data 3 μM (Aβ1-40 [2]): >5

CC(C)C[C@@H](N)C(=O)N[C@H](Cc1c(F)c(F)c(F)c(F)c1F)C(=O)N[C@H](Cc1ccccc1)C(=O)N[C@@H](C(=O)N[C@H](CC(C)C)C(N)=O)C(C)C [PPI-1324, TFA.H-(l-[F5]f-fvl)-NH2]
MAX SOLUBILITY | Brain Levels (nM) + CsA | mean [3]: 23 nM
MAX SOLUBILITY | Brain Levels (nM) | mean [3]: 4.1 nM
UNIT DOSE (2mg/kg IV) | (+)CsA [3]: 9 nM
UNIT DOSE (2mg/kg IV) | ALONE [3]: 2 nM

TFA.N-methyl-(Gaffvl)-NH2 [PPI-968]
Nucleation assay Δ lag 1.25 μM (Aβ1-40 [2]): 2
Nucleation assay Δ lag 5 μM (Aβ1-40 [2]): >5
Nucleation assay Δ lag […] (Aβ1-40 [2]): >5

TFA.N,N-diethyl-(affvl)-NH2 [PPI-1006]
Nucleation assay Δ lag 1.25 μM (Aβ1-40 [2]): 1
Nucleation assay Δ lag 5 μM (Aβ1-40 [2]): 1
Nucleation assay Δ lag […] (Aβ1-40 [2]): 1

TFA.N-isopropyl-(Gaffvl)-NH2 [PPI-970]
Nucleation assay Δ lag 1.25 μM (Aβ1-40 [2]): 1
Nucleation assay Δ lag 5 μM (Aβ1-40 [2]): >5
Nucleation assay Δ lag […] (Aβ1-40 [2]): >5
